# From patent publication US7914831B2, “Synergistic anti-inflammatory pharmaceutical compositions and related methods using curcuminoids or methylxanthines” (priority 2004, dated 2011)
# Tested on: PGE2 production
# Type: cell-based, murine
# Details: Mus musculus, RAW264.7; RAW 264.7, test material 60 min prior to 1.0 μg/mL LPS, PGE2 18 h post stimulation; read-out: IC50 (median inhibitory concentration for PGE2)
structure (smiles),measurement,value
"Cn1c(=O)c2c(ncn2C)n(C)c1=O [Caffeine, caffeine]",IC50,25 µg/mL
